The values below come from patent publication EP0515141A1, “Novel process for the preparation of 8A-aza-8A-homoerythromycin cyclic lactams” (MERCK & CO. INC., priority 1991, dated 1992).

≈ marks a conversion by molar mass, not a printed value. A value given as a limit tells only on which side of the number the result lay.

Holding throughout (assay): liquid turbidimetric microtiter MIC assay
Assay type in all cases: cell-based

Test [1] has as its system Steptococcus viridans CL 2943. Conditions: brain heart infusion broth. An excerpt: (§1) The antibacterial activities of compound (III) against a panel of aerobic Gram positive and negative bacteria is shown in the following Table. The assay employs a liquid turbidimetric microtiter method for the determination of the minimum inhibitory concentration (MIC) in brain heart infusion broth. […] The MIC is generally not an absolute value but rather a concentration ranged that falls within a two-fold dilution limit. Generally twelve two-fold dilutions of the test compound are employed with the initial concentration set at 128 mcg/ml.

Test [2] concerns Streptococcus pyogenes MB 2874. The note with it: MB2874, brain heart infusion broth.
Source text: as §1

Test [3] concerns Staphylococcus epidermidis MB 5414. Conditions: MB5414, brain heart infusion broth.
Source text: as §1

The test system of test [4] is Streptococcus pyogenes MB 5406. Conditions: MB5406, brain heart infusion broth.
Source text: as §1

The test system of test [5] is Staphylococcus haemolyticus MB 5412. The note with it: MB5412, brain heart infusion broth.
Source text: as §1

The test system of test [6] is Streptococcus pneumoniae CL 2883. Conditions: CL2883, brain heart infusion broth.
Source text: as §1

Test [7] relates to Staphylococcus aureus MB 2865. The note with it: MB2865, brain heart infusion broth.
Source text: as §1

The subject of test [8] is Streptococcus agalactiae CL 1343. The note with it: CL1343, brain heart infusion broth.
Source text: as §1

Test [9] relates to Enterococcus faecalis MB 5407. The note with it: MB5407, brain heart infusion broth.
Source text: as §1

Test [10] concerns Yersinia enterocoltica CL 1598. The note with it: CL1598, brain heart infusion broth.
Source text: as §1

In a further test the test system is Escherichia coli MB 4926. The note with it: MB4926, brain heart infusion broth.
Source text: as §1

The next test concerns Escherichia coli MB 2884. The note with it: MB2884, brain heart infusion broth.
Source text: as §1

For test [11], the system named is Pseudomonas stutzeri MB 1231. The note with it: Stutzerimonas stutzeri, MB1231, brain heart infusion broth.
Source text: as §1

For test [12], the system named is Enterococcus faecium MB 5416. The note with it: MB5416, brain heart infusion broth.
Source text: as §1

Test [13] relates to Klebsiella pneumoniae MB 4005. Conditions: MB4005, brain heart infusion broth.
Source text: as §1

As a reminder, the MIC is the lowest concentration found to suppress growth.

With `CC[C@H]1OC(=O)[C@H](C)[C@@H](O[C@H]2C[C@@](C)(OC)[C@@H](O)[C@H](C)O2)[C@H](C)[C@@H](O[C@@H]2O[C@H](C)C[C@H](N(C)C)[C@H]2O)[C@](C)(O)C[C@@H](C)NC(=O)[C@H](C)[C@@H](O)[C@]1(C)O` [(III), 8a-aza-8a-homoerythromycin A], the MIC in [1] was 4 µg/mL (≈ 5.34 µM); in test [2] it was no more than 0.06 µg/mL; in test [3] it was 2 µg/mL (≈ 2.67 µM); in [4], 128 µg/mL (≈ 171 µM); in [5], 2 µg/mL (≈ 2.67 µM); in test [6], no more than 0.06 µg/mL. Also, the MIC in test [7] came out at 1 µg/mL (≈ 1.34 µM); in [8], 0.25 µg/mL (≈ 0.334 µM); in test [9], 16 µg/mL (≈ 21.4 µM); in [10] it was 64 µg/mL (≈ 85.5 µM); in the test on Escherichia coli MB 4926, 4 µg/mL (≈ 5.34 µM); against Escherichia coli MB 2884 it was 32 µg/mL (≈ 42.7 µM). Further, the MIC is 0.12 µg/mL (≈ 0.16 µM) in test [11], no more than 0.06 µg/mL in [12] and 64 µg/mL (≈ 85.5 µM) in [13].
